Assay [1] concerns Mus musculus. In words: Downregulation of I-kappa-B-alpha phosphorylation in liver of LPS-induced sepsis BALB/c mouse model at 7.5 to 30 mg/kg administered via gavage for 3 days followed by LPS treatment for 6 hrs by Western blot analysis. Type of assay: functional, organism-based. The following applies: dose 7.5-30 mg/kg, time 78.0 hrs. In general terms: A western blot detects proteins with antibodies after separation by electrophoresis.

Assay [2] relates to Mus musculus. In words: Anti-septic activity in LPS-induced sepsis BALB/c mouse assessed as reduction in serum AST level at 30 mg/kg administered via gavage for 3 days followed by LPS treatment for 6 hrs. The following applies: time 78.0 hrs. It counts as functional, organism-based.
Assay [3] deals with RAW264.7. In words: Inhibition of LPS-induced NO production in mouse RAW264.7 cells at 20 uM pretreated for 2 hrs followed by LPS stimulation for 24 hrs by Griess assay relative to control. It counts as functional. The settings on record: time 26 hrs. (Nitrite, measured by Griess reagent, commonly stands in for NO production.)
For assay [4], the system named is RAW264.7. In words: Anti-inflammatory activity in mouse RAW264.7 cells assessed as decrease in LPS-induced I-kappaB-alpha phosphorylation at 20 uM pretreated for 2 hrs followed by LPS stimulation for 24 hrs by Western blot analysis. Type of assay: functional, cell-based. The following applies: time 26.0 hrs.
Assay [5] deals with Mus musculus. In words: Anti-septic activity in LPS-induced sepsis BALB/c mouse assessed as body weight recovery at 7.5 to 30 mg/kg administered via gavage for 3 days followed by LPS treatment for 6 hrs. It counts as functional, organism-based. The settings on record: dose 7.5-30 mg/kg, time 78.0 hrs.
The test system of assay [6] is RAW264.7. In words: Anti-inflammatory activity in mouse RAW264.7 cells assessed as inhibition of LPS-induced IL-6 production pretreated for 2 hrs followed by LPS stimulation for 24 hrs by ELISA. Type of assay: functional, cell-based. The settings on record: dose 5-20 µM. (An ELISA detects its analyte on a solid surface through an enzyme-linked reagent.)
Assay [7] concerns the target T1, Glucocorticoid receptor (Mus musculus) (UniProt P06537).
T1 sequence (whole entry): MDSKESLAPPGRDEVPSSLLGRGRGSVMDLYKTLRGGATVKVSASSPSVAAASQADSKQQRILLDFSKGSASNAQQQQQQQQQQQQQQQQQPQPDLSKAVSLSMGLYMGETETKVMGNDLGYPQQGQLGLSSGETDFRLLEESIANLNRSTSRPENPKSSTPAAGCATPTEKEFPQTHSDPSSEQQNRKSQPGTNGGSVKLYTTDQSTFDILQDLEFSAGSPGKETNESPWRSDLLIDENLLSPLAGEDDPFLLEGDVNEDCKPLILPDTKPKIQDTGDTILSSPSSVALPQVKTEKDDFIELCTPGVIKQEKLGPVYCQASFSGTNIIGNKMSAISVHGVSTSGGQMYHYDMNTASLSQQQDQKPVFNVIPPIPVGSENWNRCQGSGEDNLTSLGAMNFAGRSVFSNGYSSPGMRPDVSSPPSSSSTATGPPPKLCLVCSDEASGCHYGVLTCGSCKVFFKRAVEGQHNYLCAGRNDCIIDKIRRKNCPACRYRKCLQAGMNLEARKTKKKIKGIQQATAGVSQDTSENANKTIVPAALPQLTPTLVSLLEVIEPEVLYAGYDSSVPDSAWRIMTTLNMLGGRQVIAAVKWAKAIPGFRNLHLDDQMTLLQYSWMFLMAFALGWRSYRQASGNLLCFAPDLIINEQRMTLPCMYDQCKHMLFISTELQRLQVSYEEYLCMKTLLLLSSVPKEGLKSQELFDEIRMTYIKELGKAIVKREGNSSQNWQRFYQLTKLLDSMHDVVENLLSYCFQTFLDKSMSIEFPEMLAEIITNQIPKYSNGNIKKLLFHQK
In words: Modulation of glucocorticoid receptor in LPS-treated mouse RAW264.7 cells assessed as protein translocation from cytoplasm to nucleus at 20 uM pretreated for 12 hrs followed by LPS stimulation for 2 hrs by immunofluorescence based analysis. Type of assay: subcellular. The settings on record: filed as modulator, time 14.0 hrs.

The subject of assay [8] is Mus musculus. In words: Anti-septic activity in LPS-induced sepsis BALB/c mouse assessed as reduction in serum CRP level at 7.5 to 30 mg/kg administered via gavage for 3 days followed by LPS treatment for 6 hrs. Type of assay: functional, organism-based. The following applies: dose 7.5-30 mg/kg, time 78.0 hrs.
Assay [9] relates to Mus musculus. In words: Anti-septic activity in LPS-induced sepsis BALB/c mouse assessed as reduction in serum ALT level at 30 mg/kg administered via gavage for 3 days followed by LPS treatment for 6 hrs. The settings on record: time 78.0 hrs. It counts as functional, organism-based.
For assay [10], the system named is RAW264.7. In words: Inhibition of LPS-induced NO production in mouse RAW264.7 cells at 10 uM pretreated for 2 hrs followed by LPS stimulation for 24 hrs by Griess assay relative to control. It counts as functional. The settings on record: time 26 hrs.
Assay [11] deals with Mus musculus. In words: Anti-septic activity in LPS-induced sepsis BALB/c mouse assessed as reduction in hepatic hemorrhage at 7.5 to 30 mg/kg administered via gavage for 3 days followed by LPS treatment for 6 hrs by H and E staining based analysis. The following applies: dose 7.5-30 mg/kg, time 78.0 hrs. Type of assay: functional, organism-based.
Assay [12] deals with Mus musculus. In words: Downregulation of p65 phosphorylation in liver of LPS-induced sepsis BALB/c mouse model at 7.5 to 30 mg/kg administered via gavage for 3 days followed by LPS treatment for 6 hrs by Western blot analysis. Type of assay: functional, organism-based. The settings on record: dose 7.5-30 mg/kg, time 78.0 hrs.
Assay [13] concerns RAW264.7. In words: Upregulation of glucocorticoid receptor mRNA expression in LPS-treated mouse RAW264.7 cells incubated for 24 hrs by qRT-PCR analysis. It counts as functional, cell-based.
Assay [14] concerns the target T1, Glucocorticoid receptor (Mus musculus). In words: Stabilization of glucocorticoid receptor in mouse RAW264.7 cells assessed as blockade of CHX-induced protein degradation at 20 uM incubated for 24 hrs by Western blot analysis. It counts as cell-based.
For assay [15], the system named is RAW264.7. In words: Anti-inflammatory activity in mouse RAW264.7 cells assessed as inhibition of LPS-induced TNF-alpha production pretreated for 2 hrs followed by LPS stimulation for 24 hrs by ELISA. The settings on record: dose 5-20 µM, time 26.0 hrs. Type of assay: functional, cell-based.
The subject of assay [16] is RAW264.7. In words: Anti-inflammatory activity in mouse RAW264.7 cells assessed as decrease in LPS-induced p65 phosphorylation at 20 uM pretreated for 2 hrs followed by LPS stimulation for 24 hrs by Western blot analysis. It counts as functional, cell-based. The settings on record: time 26.0 hrs.
For assay [17], the system named is Mus musculus. In words: Anti-septic activity in LPS-induced sepsis BALB/c mouse assessed as reduction in pathological change in kidney at 7.5 to 30 mg/kg administered via gavage for 3 days followed by LPS treatment for 6 hrs by H and E staining based analysis. Type of assay: functional, organism-based. The settings on record: dose 7.5-30 mg/kg, time 78.0 hrs.

In assay [18] the test system is RAW264.7. In words: Inhibition of LPS-induced NO production in mouse RAW264.7 cells pretreated for 2 hrs followed by LPS stimulation for 24 hrs by Griess assay. Type of assay: functional, cell-based.
Assay [19] concerns Mus musculus. In words: Anti-septic activity in LPS-induced sepsis BALB/c mouse assessed as reduction in serum TNF-alpha level at 7.5 to 30 mg/kg administered via gavage for 3 days followed by LPS treatment for 6 hrs by ELISA. The settings on record: dose 7.5-30 mg/kg, time 78.0 hrs. It counts as functional, organism-based.
Assay [20] relates to RAW264.7. In words: Effect on KLF9 mRNA expression in mouse RAW264.7 cells by qPCR analysis. Type of assay: functional, cell-based.
Assay [21] has as its system RAW264.7. In words: Upregulation of glucocorticoid receptor expression in LPS-treated mouse RAW264.7 cells pretreated for 2 hrs followed by LPS stimulation for 24 hrs by Western blot analysis. It counts as functional, cell-based. The settings on record: time 26.0 hrs.
Assay [22] deals with T1, Glucocorticoid receptor (Mus musculus). In words: Binding affinity to glucocorticoid receptor in mouse RAW264.7 cells assessed as thermal stability by measuring protein degradation at 47 degreeC at 10 to 40 uM pretreated for 24 hrs followed by heat exposure for 3 mins and subsequently incubated at room temperature for 3 mins by CETSA. It counts as cell-based. The settings on record: dose 10-40 µM, time 1446.0 min.

For assay [23] the target is unchanged. In words: Binding affinity to glucocorticoid receptor in mouse RAW264.7 cells assessed as increase in thermal stability at 47 degreeC pretreated for 24 hrs followed by heat exposure for 3 mins and subsequently incubated at room temperature for 3 mins by CETSA. Type of assay: cell-based. The following applies: dose 2.5-40 µM, time 1446.0 min.

pIC50: −log10 of the molar value. The source made the active and inactive calls. The calls are words filed in the database; no cut-off is given here.

In general, inhibition refers to the percentage by which the read-out fell short of the control. The pIC50 is the IC50 on a negative log10 scale, so that one unit is a factor of ten. Turning to `CC(C)(C)OC(=O)CCC(=O)Nc1nc2c(s1)C[C@]1(C)[C@H]3C[C@@H](O)[C@@H]4C([C@]5(C)CC[C@@H](C(C)(C)O)O5)CC[C@@]4(C)[C@]3(C)CC[C@H]1C2(C)C` (stereo partly drawn), the outcome in assay [1], in [2], in [4], in [5], in [7] and in [8] was Active. Moreover, the result in assay [9], in assay [11], in [12], in assay [13], in assay [14] and in [16] was Active. In addition, the result in assay [17], in [19], in [21] and in assay [22] was Active. Besides, in [3], the inhibition at 20 µM turned out to be 86%. The inhibition result in assay [6] and in assay [15] was “Dose-Dependent Effect” throughout. For the same compound, the inhibition at 10 µM in assay [10] is 52.6%. Moreover, the pIC50 in assay [18] is 5.47. The result in [20] was inactive. Further, in [23], the Activity result is “Dose-Dependent Effect”.

The values are drawn from ChEMBL document CHEMBL5500363, “Discovery of novel ocotillol derivatives modulating glucocorticoid receptor/NF-κB signaling for the treatment of sepsis” (Eur J Med Chem, 2024).
